# Assay results published in patent US11352350B2, “IRAK degraders and uses thereof” (Kymera Therapeutics, Inc., priority 2018, dated 2022).
# Like-named read-outs stand apart in the source and are kept apart here.
# Key:
# IRAK4 = IRAK4 (Homo sapiens (Human), UniProt Q9NWZ3); test: IRAK4 MSD degradation in OCI-LY10; format: cell-based; conditions: MSD
# Summary of the method: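 Remaining IRAK4 quantified by electrochemiluminescent MSD sandwich assay with two anti-IRAK4 antibodies. Compounds were dosed as 8 concentrations in 1:3 steps from a 1 to 10 μM final top on OCI-LY10 cells, incubated 4 to 24 h at 37° C. under 5% CO2. DC50 fitted with a three-parameter logistic curve.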
# OCI-LY10 = test: CTG Cell Viability Assay - OCI-LY10; format: cell-based, human; conditions: Homo sapiens, OCI-Ly10, 96 h, OCI-LY10, 4 days; read-out: CTG Cell Viability Assay - OCI-LY10: Average external-IC50
# Summary of the method: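 Viability read by CellTiter-Glo luminescence after 4 days at 37° C under 5% CO2 with compound (top 10 μM final, 1:3 steps, 9 doses, DMSO 0.2%). Three-parameter logistic fit gave IC50.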
# [1] = OCI-LY10, 4 hrs, read-out: IRAK4 MSD degradation in OCI-LY10 at 4 hrs: Average external-Abs DC50
# [2] = OCI-LY10, 24 hrs, read-out: IRAK4 MSD degradation in OCI-LY10 at 24 hrs: Average external-Abs DC50
# Chain of IRAK4 (Q9NWZ3 whole entry): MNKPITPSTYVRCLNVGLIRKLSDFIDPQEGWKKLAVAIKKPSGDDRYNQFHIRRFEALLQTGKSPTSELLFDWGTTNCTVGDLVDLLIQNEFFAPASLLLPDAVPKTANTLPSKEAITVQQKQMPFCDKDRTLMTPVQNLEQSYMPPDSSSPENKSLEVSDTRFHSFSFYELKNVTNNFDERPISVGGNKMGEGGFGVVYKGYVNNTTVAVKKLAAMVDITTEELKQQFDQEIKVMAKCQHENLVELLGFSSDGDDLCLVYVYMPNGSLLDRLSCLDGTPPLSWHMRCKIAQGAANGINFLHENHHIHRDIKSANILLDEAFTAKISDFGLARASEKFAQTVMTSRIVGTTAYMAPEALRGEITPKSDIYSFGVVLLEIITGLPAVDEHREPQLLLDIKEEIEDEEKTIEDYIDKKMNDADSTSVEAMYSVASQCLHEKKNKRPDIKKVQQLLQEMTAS
Compound,DC50 (IRAK4; [1]),DC50 (IRAK4; [2]),IC50 (OCI-LY10)
O=C1CCC(N2C(=O)c3cccc(NCC4CC5(CCN(C[C@H]6CC[C@H](n7cc(NC(=O)c8cnn9ccc(N%10C[C@H]%11C[C@@H]%10CO%11)nc89)c(C(F)F)n7)CC6)CC5)C4)c3C2=O)C(=O)N1 (some centres unmarked) [I-373],> 1 µM,0.01 to 0.1 µM,< 0.05 µM
Cn1c(=O)n(C2CCC(=O)NC2=O)c2cccc(CN3CC4(CCN(C[C@H]5CC[C@H](n6cc(NC(=O)c7cnn8ccc(N9CCOCC9)nc78)c(C(F)F)n6)CC5)CC4)C3)c21 (some centres unmarked) [I-233],< 0.01 µM,–,0.1 to 0.5 µM
CN(CCN1CCO[C@@H](CCNc2cccc3c2C(=O)N(C2CCC(=O)NC2=O)C3=O)C1)C[C@H]1CC[C@H](n2cc(NC(=O)c3cnn4ccc(N5C[C@H]6C[C@@H]5CO6)nc34)c(C(F)F)n2)CC1 (some centres unmarked) [I-337],0.1 to 1 µM,0.01 to 0.1 µM,0.05 to 0.1 µM
CC[C@@H]1[C@H](F)C(=O)N[C@@H]1COc1ncc(C#C[C@H]2CC[C@H](CN3CCC(OCCNc4cccc5c4C(=O)N(C4CCC(=O)NC4=O)C5=O)CC3)CC2)c2cc(C(N)=O)c(OC)cc12 (some centres unmarked) [I-386],0.1 to 1 µM,0.01 to 0.1 µM,< 0.05 µM
CN(C[C@H]1CC[C@H](n2cc(NC(=O)c3coc(-c4ccnc(NCC5CC5)c4)n3)c(C(F)F)n2)CC1)C1CN(Cc2cccc3c2n(C)c(=O)n3C2CCC(=O)NC2=O)C1 (some centres unmarked) [I-240],< 0.01 µM,–,> 1 µM
CC[C@@H]1CC(=O)N[C@@H]1COc1ncc(C#C[C@H]2CC[C@@H](CN(C)CCCOCCCc3cccc4c3n(C)c(=O)n4C3CCC(=O)NC3=O)CC2)c2cc(C(N)=O)c(OC)cc12 (some centres unmarked) [I-201],> 1 µM,0.1 to 1 µM,> 1 µM
Cn1c(=O)n(C2CCC(=O)NC2=O)c2ccc(CN3CCC(CCCN4CCC(n5cc(NC(=O)c6coc(-c7ccnc(NCC8CC8)c7)n6)c(C(F)F)n5)CC4)CC3)cc21 (centres unmarked) [I-254],0.01 to 0.1 µM,–,0.1 to 0.5 µM
O=C1CCC(n2c(=O)oc3cc(CCCOC4CCN(C[C@H]5CC[C@H](n6cc(NC(=O)c7cnn8ccc(N9CCNCC9)nc78)c(C(F)F)n6)CC5)CC4)ccc32)C(=O)N1 (some centres unmarked) [I-166],0.01 to 0.1 µM,–,> 1 µM
O=C1CCC(N2C(=O)c3cccc(NCCCOC4CCN(C[C@H]5CC[C@H](n6cc(NC(=O)c7cnn8ccc(N[C@@H]9CCCC[C@@H]9O)nc78)c(C(F)F)n6)CC5)CC4)c3C2=O)C(=O)N1 (some centres unmarked) [I-294],0.01 to 0.1 µM,–,< 0.05 µM
Cn1c(=O)n(C2CCC(=O)NC2=O)c2cccc(CN3CCC4(CC3)CCN(C[C@H]3CC[C@H](n5cc(NC(=O)c6coc(-c7ccnc(NCC8CC8)c7)n6)c(C(F)F)n5)CC3)CC4)c21 (some centres unmarked) [I-245],0.01 to 0.1 µM,–,< 0.05 µM
O=C1CCC(n2c(=O)oc3c(CCCOC4CCN(C[C@H]5CC[C@H](n6cc(NC(=O)c7cnn8ccc(N9CCNCC9)nc78)c(C(F)F)n6)CC5)CC4)cccc32)C(=O)N1 (some centres unmarked) [I-165],0.01 to 0.1 µM,–,0.5 to 1 µM
CN(CCCc1ccc(CNc2cccc3c2C(=O)N(C2CCC(=O)NC2=O)C3=O)cc1)C[C@H]1CC[C@H](n2cc(NC(=O)c3cnn4ccc(N5C[C@H]6C[C@@H]5CO6)nc34)c(C(F)F)n2)CC1 (some centres unmarked) [I-361],> 1 µM,0.01 to 0.1 µM,0.5 to 1 µM
CN(CCCN(C)C[C@H]1CC[C@H](n2cc(NC(=O)c3coc(-c4ccnc(NCC5CC5)c4)n3)c(C(F)F)n2)CC1)Cc1cccc2c1n(C)c(=O)n2C1CCC(=O)NC1=O (some centres unmarked) [I-242],< 0.01 µM,–,0.5 to 1 µM
Cc1c[nH]c2ncnc(N[C@H]3CC[C@H](N4CCN(C(=O)COCCOCCOCCOCCCc5ccc6c(c5)n(C)c(=O)n6C5CCC(=O)NC5=O)CC4)CC3)c12 (some centres unmarked) [I-26],> 1 µM,> 1 µM,> 1 µM
O=C1CCC(N2C(=O)c3cccc(NCCCOC[C@H]4CC[C@H](n5cc(NC(=O)c6cnn7ccc(N8C[C@H]9C[C@@H]8CO9)nc67)c(C(F)F)n5)CC4)c3C2=O)C(=O)N1 (some centres unmarked) [I-375],> 1 µM,–,0.5 to 1 µM
O=C1CCC(N2C(=O)c3cccc(CNC4CC5(CCN(C[C@H]6CC[C@H](n7cc(NC(=O)c8cnn9ccc(N%10C[C@H]%11C[C@@H]%10CO%11)nc89)c(C(F)F)n7)CC6)CC5)C4)c3C2=O)C(=O)N1 (some centres unmarked) [I-360],0.01 to 0.1 µM,–,> 1 µM
